These molecules were tested against T1, hITK enzyme (FLAG-tagged full-length hITK) (Homo sapiens, UniProt Q08881) (assay: ITK inhibitory activity (HTRF kinase assay, biotinylated GST-SLP76 substrate)). Settings: IC50 calculated from the 2 test compound concentrations sandwiching 50% ITK inhibitory rate.
T1 construct: strongly expressing FLAG-tagged full-length hITK in Sf9 cells; FLAG; made in house; host or cells: Sf9 insect cells (ITK); Escherichia coli (GST-SLP76 substrate)
T1 sequence (Q08881 1-620): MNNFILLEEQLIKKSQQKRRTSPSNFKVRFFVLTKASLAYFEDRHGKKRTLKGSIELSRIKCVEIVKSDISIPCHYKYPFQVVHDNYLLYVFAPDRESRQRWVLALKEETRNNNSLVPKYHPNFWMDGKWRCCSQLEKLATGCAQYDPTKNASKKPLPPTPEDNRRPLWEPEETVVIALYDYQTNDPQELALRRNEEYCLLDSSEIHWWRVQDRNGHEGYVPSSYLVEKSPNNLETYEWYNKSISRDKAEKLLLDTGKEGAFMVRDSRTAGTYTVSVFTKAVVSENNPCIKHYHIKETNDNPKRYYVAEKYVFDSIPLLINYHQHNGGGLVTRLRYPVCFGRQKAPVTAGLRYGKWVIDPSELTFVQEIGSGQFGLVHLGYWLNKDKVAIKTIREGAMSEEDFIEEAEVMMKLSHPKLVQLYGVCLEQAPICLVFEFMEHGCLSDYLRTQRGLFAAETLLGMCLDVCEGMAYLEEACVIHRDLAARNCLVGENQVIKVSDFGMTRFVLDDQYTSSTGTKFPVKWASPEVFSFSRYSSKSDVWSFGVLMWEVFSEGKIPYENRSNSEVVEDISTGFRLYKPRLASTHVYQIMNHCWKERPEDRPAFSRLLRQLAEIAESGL
Assay type: biochemical
Experimental: (1) Preparation of hITK Enzyme
hITK enzyme was prepared by strongly expressing FLAG-tagged full-length hITK in Sf9 cells, and purifying same by anti-FLAG antibody column.
(2) Preparation of biotinylated GST-SLP76
Biotinylated GST-SLP76 was prepared by strongly expressing GST-tagged SLP76 (aa95-175) in Escherichia coli, purifying same by glutathion sepharose column and biotinylating same.
(3) Preparation of Solution
(i) buffer for dilution: 20 mmol/L 3-(N-morpholino)propanesulfonic acid (pH 7.0) (DOJINDO LABORATORIES), 10 mmol/L magnesium chloride (Sigma-Aldrich Corporation), 1 mmol/L dithiothreitol (Nacalai Tesque, Inc.), 0.1% gelatin (Sigma-Aldrich Corporation)
(ii) substrate solution: 0.2 μg/mL biotinylated GST-SLP76, 100 μmol/L ATP (Sigma-Aldrich Corporation), prepared with buffer for dilution
(iii) test compound solution: test compound, 50% dimethyl sulfoxide (DMSO), prepared with buffer for dilution
(iv) enzyme solution: 50 ng/mL hITK enzyme, prepared with buffer for dilution
(v) control solution: solution after removal of test compound from the mixture of the above-mentioned (i), (ii) and (iii)
(vi) blank solution: solution after removal of ATP from the mixture of the above-mentioned (i), (ii) and (iii)
(vii) detection buffer: 0.1 μg/mL Anti-Phosphotyrosine (PT66)-Cryptate (Cisbio), 2.5 μg/mL streptavidin-binding XL665 (Cisbio), 50 mmol/L 4-(2-hydroxyethyl)-1-piperazineethanesulfonic acid (pH 7.4) (Nacalai Tesque, Inc.), 30 mmol/L EDTA (NipponGene), 0.1% TritonX (Sigma-Aldrich Corporation), 200 mmol/L potassium fluoride (Wako Pure Chemical Industries, Ltd.), 0.05% bovine serum albumin (Sigma-Aldrich Corporation) (4) Measurement of ITK Inhibitory Activity
A substrate solution (25 μL/well), a test compound solution (5 μL/well) and an enzyme solution (20 μL/well) were added into 96 well half-area white plate (plate, Corning Incorporated 3642) to start a kinase reaction. The plate was stood still at room temperature for 10 min. Then, a detection buffer (50 μL/well) was added to the plate. After 2 hr from the addition of the detection buffer, fluorescence intensity at 620 nm (excited at 337 nm), and fluorescence intensity at 665 nm ([…]) were measured by a fluorescence microplate reader.
The Ratio (fluorescence intensity at 665 nm/fluorescence intensity at 620 nm×10000) of each test compound was calculated from the measured fluorescence intensity. Simultaneously, the measurement was performed using a blank solution and a control solution, and % of control value of each test compound was calculated from the following formula. % of control=(Ratio of test compound−Ratio of blank)/(Ratio of control−Ratio of blank)×100 ITK inhibitory rate (%)=100−(% of control)
The IC50 value was calculated from the test compound concentrations at 2 points sandwiching 50% ITK inhibitory rate.
In the test for the compounds of Examples 380 and 381, the ATP concentration of the substrate solutions was 6 μmol/L.

Row | SMILES | IC50 [nM]
1 | CN(c1ccc2cc(-c3n[nH]c4c3CCC(C)(C)C4)[nH]c2c1)C(=O)[C@H]1CC[C@H](O)CC1 [Example 101] | 13
2 | CN(C(=O)OC1CCCCC1)c1ccc2cc(-c3n[nH]c4c3CCC(C)(C)C4)[nH]c2c1 [Example 102] | 117
3 | CN(C(=O)CC1CCCOC1)c1ccc2cc(-c3n[nH]c4c3CCC(C)(C)C4)[nH]c2c1 (centres unmarked) [Example 103] | 3
4 | CC(C(=O)N(C)c1ccc2cc(-c3n[nH]c4c3CCC(C)(C)C4)[nH]c2c1)N1CCOCC1 (centres unmarked) [Example 104] | 4
5 | CN(C(=O)CN1CCCCC1=O)c1ccc2cc(-c3n[nH]c4c3CCC(C)(C)C4)[nH]c2c1 [Example 105] | 2
6 | CN(C(=O)C1CC(=O)OC1(C)C)c1ccc2cc(-c3n[nH]c4c3CCC(C)(C)C4)[nH]c2c1 (centres unmarked) [Example 106] | 7
7 | CN(C(=O)CN1CCC(O)CC1)c1ccc2cc(-c3n[nH]c4c3CCC(C)(C)C4)[nH]c2c1 [Example 107] | 10
8 | CC(C(=O)N(C)c1ccc2cc(-c3n[nH]c4c3CCC(C)(C)C4)[nH]c2c1)N1CCC(O)CC1 (centres unmarked) [Example 108] | 15
9 | CN(C(=O)CN1CCC[C@H](O)C1)c1ccc2cc(-c3n[nH]c4c3CCC(C)(C)C4)[nH]c2c1 [Example 109] | 6
10 | CN(C(=O)CN1CCC[C@@H](O)C1)c1ccc2cc(-c3n[nH]c4c3CCC(C)(C)C4)[nH]c2c1 [Example 110] | 7
11 | CC(C(=O)N(C)c1ccc2cc(-c3n[nH]c4c3CCC(C)(C)C4)[nH]c2c1)N1CCC[C@H](O)C1 (some centres unmarked) [Example 111] | 9
12 | CC(C(=O)N(C)c1ccc2cc(-c3n[nH]c4c3CCC(C)(C)C4)[nH]c2c1)N1CCC[C@@H](O)C1 (some centres unmarked) [Example 112] | 7
13 | COC1CCN(C(C)C(=O)N(C)c2ccc3cc(-c4n[nH]c5c4CCC(C)(C)C5)[nH]c3c2)CC1 (centres unmarked) [Example 113] | 9
14 | CO[C@H]1CCCN(CC(=O)N(C)c2ccc3cc(-c4n[nH]c5c4CCC(C)(C)C5)[nH]c3c2)C1 [Example 114] | 5
15 | CO[C@@H]1CCCN(CC(=O)N(C)c2ccc3cc(-c4n[nH]c5c4CCC(C)(C)C5)[nH]c3c2)C1 [Example 115] | 4
16 | CO[C@H]1CCCN(C(C)C(=O)N(C)c2ccc3cc(-c4n[nH]c5c4CCC(C)(C)C5)[nH]c3c2)C1 (some centres unmarked) [Example 116] | 9
17 | CO[C@@H]1CCCN(C(C)C(=O)N(C)c2ccc3cc(-c4n[nH]c5c4CCC(C)(C)C5)[nH]c3c2)C1 (some centres unmarked) [Example 117] | 6
18 | CC1CN(CC(=O)N(C)c2ccc3cc(-c4n[nH]c5c4CCC(C)(C)C5)[nH]c3c2)CC(C)O1 (centres unmarked) [Example 118] | 3
19 | C[C@@H]1CN(CC(=O)N(C)c2ccc3cc(-c4n[nH]c5c4CCC(C)(C)C5)[nH]c3c2)C[C@H](C)O1 [Example 119] | 3
20 | CC1CN(C(C)C(=O)N(C)c2ccc3cc(-c4n[nH]c5c4CCC(C)(C)C5)[nH]c3c2)CC(C)O1 (centres unmarked) [Example 120] | 5
21 | CC(C(=O)N(C)c1ccc2cc(-c3n[nH]c4c3CCC(C)(C)C4)[nH]c2c1)N1C[C@@H](C)O[C@@H](C)C1 (some centres unmarked) [Example 121] | 5
22 | CC(C(=O)N(C)c1ccc2cc(-c3n[nH]c4c3CCC(C)(C)C4)[nH]c2c1)N1CCCCC1 (centres unmarked) [Example 122] | 20
23 | CN(C(=O)COC1CCCOC1)c1ccc2cc(-c3n[nH]c4c3CCC(C)(C)C4)[nH]c2c1 (centres unmarked) [Example 123] | 2
24 | CN(C(=O)C1CCCCC1)c1ccc2cc(-c3n[nH]c4c3CCC(C)(C)C4)[nH]c2c1 [Example 124] | 12
25 | CCC(=O)N(C)CC(=O)N(C)c1ccc2cc(-c3n[nH]c4c3CCC(C)(C)C4)[nH]c2c1 [Example 125] | 1

Row | SMILES | IC50 [nM]
26 | CNCC(=O)N(C)c1ccc2cc(-c3n[nH]c4c3CCC(C)(C)C4)[nH]c2c1 [Example 126] | 8
27 | CN(C(=O)CN1CCCCCC1=O)c1ccc2cc(-c3n[nH]c4c3CCC(C)(C)C4)[nH]c2c1 [Example 127] | 1
28 | CN(C(=O)C1CCC(=O)N1)c1ccc2cc(-c3n[nH]c4c3CCC(C)(C)C4)[nH]c2c1 (centres unmarked) [Example 128] | 2
29 | CCC(C(=O)N(C)c1ccc2cc(-c3n[nH]c4c3CCC(C)(C)C4)[nH]c2c1)N1CCOCC1 (centres unmarked) [Example 129] | 5
30 | CC1COCC(=O)N1CC(=O)N(C)c1ccc2cc(-c3n[nH]c4c3CCC(C)(C)C4)[nH]c2c1 (centres unmarked) [Example 130] | 2
31 | CN(C(=O)C(O)COC1CCCC1)c1ccc2cc(-c3n[nH]c4c3CCC(C)(C)C4)[nH]c2c1 (centres unmarked) [Example 131] | 25
32 | CC(C)OCC(O)C(=O)N(C)c1ccc2cc(-c3n[nH]c4c3CCC(C)(C)C4)[nH]c2c1 (centres unmarked) [Example 132] | 13
33 | CC(C(=O)N(C)c1ccc2cc(-c3n[nH]c4c3CCC(C)(C)C4)[nH]c2c1)N1CCCCC1=O (centres unmarked) [Example 133] | 10
34 | CC(C(=O)N(C)c1ccc2cc(-c3n[nH]c4c3CCC(C)(C)C4)[nH]c2c1)N1CCCC1=O (centres unmarked) [Example 134] | 8
35 | C[C@H](C(=O)N(C)c1ccc2cc(-c3n[nH]c4c3CCC(C)(C)C4)[nH]c2c1)N1CCOCC1 [Example 135] | 6
36 | CC1CCC(=O)N1CC(=O)N(C)c1ccc2cc(-c3n[nH]c4c3CCC(C)(C)C4)[nH]c2c1 (centres unmarked) [Example 136] | 2
37 | CC1CCCC(=O)N1CC(=O)N(C)c1ccc2cc(-c3n[nH]c4c3CCC(C)(C)C4)[nH]c2c1 (centres unmarked) [Example 137] | 2
38 | CN(C(=O)CN1CCCS1(=O)=O)c1ccc2cc(-c3n[nH]c4c3CCC(C)(C)C4)[nH]c2c1 [Example 138] | 3
39 | CN(C(=O)[C@@H]1CCCO1)c1ccc2cc(-c3n[nH]c4c3CCC(C)(C)C4)[nH]c2c1 [Example 139] | 2
40 | CN(C(=O)[C@H]1CCCO1)c1ccc2cc(-c3n[nH]c4c3CCC(C)(C)C4)[nH]c2c1 [Example 140] | 2
41 | CN(C(=O)CCN1CCCCC1=O)c1ccc2cc(-c3n[nH]c4c3CCC(C)(C)C4)[nH]c2c1 [Example 141] | 10
42 | CN(C(=O)CC1CCC(=O)N1C)c1ccc2cc(-c3n[nH]c4c3CCC(C)(C)C4)[nH]c2c1 (centres unmarked) [Example 142] | 5
43 | CN(C(=O)CC1CCC(=O)N1)c1ccc2cc(-c3n[nH]c4c3CCC(C)(C)C4)[nH]c2c1 (centres unmarked) [Example 143] | 3
44 | CN(C(=O)CCN1CCCC1=O)c1ccc2cc(-c3n[nH]c4c3CCC(C)(C)C4)[nH]c2c1 [Example 144] | 9
45 | CC1COCCN1CC(=O)N(C)c1ccc2cc(-c3n[nH]c4c3CCC(C)(C)C4)[nH]c2c1 (centres unmarked) [Example 145] | 3
46 | CC1COCCN1C(C)C(=O)N(C)c1ccc2cc(-c3n[nH]c4c3CCC(C)(C)C4)[nH]c2c1 (centres unmarked) [Example 146] | 11
47 | CC(C(=O)N(C)c1ccc2cc(-c3n[nH]c4c3CCC(C)(C)C4)[nH]c2c1)N1CCOCC1=O (centres unmarked) [Example 147] | 8
48 | CN(C(=O)[C@@H]1CCCN1C)c1ccc2cc(-c3n[nH]c4c3CCC(C)(C)C4)[nH]c2c1 [Example 148] | 19
49 | CN(C(=O)[C@H]1CCCN1C)c1ccc2cc(-c3n[nH]c4c3CCC(C)(C)C4)[nH]c2c1 [Example 149] | 10
50 | CN(C(=O)[C@H]1CCC(=O)N1C)c1ccc2cc(-c3n[nH]c4c3CCC(C)(C)C4)[nH]c2c1 [Example 150] | 2

— patent US8299070B2, “Indole compounds and pharmaceutical use thereof” (Japan Tobacco Inc., priority 2009, dated 2012)
